The target of data set [1] is T1, (Homo sapiens, UniProt P00918).
T1 construct: pure CA11 enzyme from human erythrocyte; from tissue; host or cells: human erythrocytes (purified enzyme)
The data set is described as follows: Carbonic anhydrase activity, micromethod of Maren (time to lower pH of CO2-saturated carbonate/bicarbonate buffer, phenol red endpoint). As to conditions: pure enzyme from human erythrocyte; 0°-4° C.; pH 9.9 to 6.8. The data set is classed as biochemical. As to the method: 1. Carbonic anhydrase activity was assayed according to the micromethod of Maren (J. PharmacoI. Exptl. Therap., 130, 26-29, 1960). All solutions and reagents were maintained at 0°-4° C. The final assay mixture contained 16 mM phenol red, added enzyme and 62.5 mM sodium carbonate/bicarbonate. Its volume was kept constant at 0.8 mL. The time required for the added enzyme to lower the pH of CO2-saturated carbonate/bicarbonate buffer from pH 9.9 to 6.8 was measured using the color change of phenol red as endpoint. T1 is the time recorded for the reaction containing no enzyme. T2 is the time recorded for the reaction containing pure CA11 enzyme from human erythrocyte, or an unknown amount in a sample. Enzyme activities (unit) were calculated using the formula:
Unit/ug=(T1 -T2)(T2 *ug protein used in assay)
IC50 of a carbonic anhydrase inhibitor is the concentration that lowers the enzyme activity to half.

Data set [2] is described as follows: Cysteine reactivity probe assay (HPLC). On the set-up: unit not given here. As to conditions: cysteine in phosphate buffer pH 7.4, HPLC; unit not given. An excerpt:
An additional measurement made on some compounds of the invention is the cysteine reactivity. This reactivity measurement gives an indication of the likelihood that a compound will react with cysteine residues in the eye, and so is a measure of the likelihood of development of sensitization in the eye to that compound. […] In general, substituents that are more highly electron withdrawing, such as sulfonyl or carbonyl moieties adjacent to the thiazole ring, increase cysteine reactivity.
2. Cysteine reactivity was measured by the following probe assay procedure. Three stock solutions of: A) the CAI compound to be tested in […] phosphate buffer; B) cysteine ([…]) in 50 mM phosphate buffer at pH 7.4; and C) phosphate buffer (50 mM) at pH 7.4, were prepared. Each solution was deoxygenated by bubbling with N2 for 10-15 min.
Reaction mixtures were prepared in triplicate by mixing equal volumes (1 mL) of two stock solutions as follows:
Hydrolytic or other chemical reactivity was detected by comparison of solutions I and II. Cysteine related reactions were detected by comparison of solutions II and III. All samples were assayed using HPLC under constant conditions and over a short period of time to minimize experimental variations in peak heights not related to CAI concentration differences. Each of the three solutions were assayed in sequence to give three sets of experimental values: Ia, IIa, IIIa, Ib, IIb, IIIb, Ic, IIc, IIIc and each set was compared separately. Mean and standard deviations of the three sets were recorded.

In turn, `CN(C)CCCC(=O)c1ncc(S(N)(=O)=O)s1` [2-(4-(N,N-dimethyl)aminobutanoyl)-5-thiazole sulfonamide] gave a concentration for half-maximal inhibition (IC50) in data set [1] of 26 nM.

Regarding `NS(=O)(=O)c1nccs1` [2-Thiazole sulfonamide], in data set [1], the IC50 came to 61 nM. Also, in data set [2], the Cysteine reactivity entry is on record as “N.R”.

The compound `CCCCOc1ncc(S(N)(=O)=O)s1` [2-(1-Butoxy)-5-thiazole sulfonamide] came in with an IC50 in data set [1] of 16 nM. In data set [2], this compound registered a Cysteine reactivity below 0.00005.

As to `COc1ccc(-c2nc(S(N)(=O)=O)sc2Cl)cc1` [5-Chloro-4-(4-methoxyphenyl)-2-thiazole sulfonamide], in data set [1], the 50% inhibitory concentration (IC50) amounted to 30 nM.

`NS(=O)(=O)c1ncc(Cc2ccccc2)s1` [5-Benzyl-2-thiazole sulfonamide]: in data set [1], inhibition was half-maximal at 9.3 nM (IC50).

`CC[S+]([O-])c1cnc(S(N)(=O)=O)s1` (stereo not shown) [5-Ethylsufinyl-2-thiazole sulfonamide, 5-Ethylsulfinyl-2-thiazole sulfonamide] yielded an IC50 in data set [1] of 11.4 nM. Further, the Cysteine reactivity result in data set [2] is recorded as “reactive”.

In the case of `CCCCCC(O)c1ncc(S(N)(=O)=O)s1` (stereo not shown) [2-(1-Hydroxyhexyl)-5-thiazole sulfonamide], in data set [1], the 50% inhibitory concentration (IC50) came to 10 nM.

As for `CCSc1cnc(S(N)(=O)=O)s1` [5-(Ethylthio)-2-thiazole sulfonamide], the IC50 in data set [1] came out at 4.2 nM. Moreover, the Cysteine reactivity in data set [2] is reported as 0.000024.

`NS(=O)(=O)c1ncc(Cl)s1` [5-Chloro-2-thiazole sulfonamide] had an IC50 in data set [1] of 5.9 nM. The Cysteine reactivity in data set [2] was 0.00002.

`COC(=O)CCSc1cnc(S(N)(=O)=O)s1` [5-(2-Carbomethoxyethyl)thio-2-thiazole sulfonamide] showed a concentration for half-maximal inhibition (IC50) in data set [1] of 9.1 nM.

`NS(=O)(=O)c1cnc(-c2ccccc2)s1` [2-Phenyl-5-thiazole sulfonamide] gave an IC50 in data set [1] of 20 nM.

Turning to `NS(=O)(=O)c1ncc(S(=O)(=O)c2ccccc2)s1` [5-Phenylsulfonyl-2-thiazole sulfonamide, 5-(Phenylsulfonyl)-2-thiazole sulfonamide], in data set [1], inhibition was half-maximal at 6 nM (IC50). For the same compound, the Cysteine reactivity entry in data set [2] is listed as “reactive”.

The compound `CCOC(=O)c1csc(S(N)(=O)=O)n1` [4-Carboethoxy-2-thiazole sulfonamide, 4-carboethoxy-2-thiazole sulfonamide] came in with a 50% inhibitory concentration (IC50) in data set [1] of 77 nM. Moreover, the Cysteine reactivity in data set [2] is given as below 0.000005.

For `CCCCCCc1ncc(S(N)(=O)=O)s1` [2-Hexyl-5-thiazole sulfonamide, 2-(1-Hexyl)-5-thiazole sulfonamide], in data set [1], the concentration for half-maximal inhibition (IC50) was found to be 20.6 nM.

In data set [1], `NS(=O)(=O)c1ncc(Br)s1` [5-Bromo-2-thiazole sulfonamide] had a 50% inhibitory concentration (IC50) of 7.8 nM.

For `CN(C)CCN(C)S(=O)(=O)c1ncc(S(N)(=O)=O)s1` [2-(N-Methyl-N-(dimethylamino)ethyl)sulfamyl-5-thiazole sulfonamide], the half-inhibitory concentration (IC50) in data set [1] was determined as 14.5 nM. In data set [2], the Cysteine reactivity result is “reactive”.

With `NS(=O)(=O)c1ncc(C(=O)c2ccccc2)s1` [5-Benzoyl-2-thiazole sulfonamide], half-maximal inhibition in data set [1] (IC50) required 5 nM. In addition, in data set [2], the Cysteine reactivity entry is “reactive”.

Compound `NS(=O)(=O)c1nc2c(s1)CCCC2` [2-Sulfamyl-4,5,6,7-tetrahydrobenzothiazole] had a 50% inhibitory concentration (IC50) in data set [1] of 15 nM.

In data set [1], `NS(=O)(=O)c1ncc(SCCO)s1` [5-(2-Hydroxyethyl)thio-2-thiazole sulfonamide] had an IC50 of 6.6 nM.

Consider `CCCCCC(=O)c1ncc(S(N)(=O)=O)s1` [2-Hexanoyl-5-thiazole sulfonamide, 2-(1-Hexanoyl)-5-thiazole sulfonamide], for which, in data set [1], the IC50 amounted to 3.5 nM. For the same compound, in data set [2], the Cysteine reactivity worked out at 0.00007.

In data set [1], `CC(C)(C)NS(=O)(=O)c1ncc(S(N)(=O)=O)s1` [2-(N-t-butylsulfamyl)-5-thiazole sulfonamide] returned a half-maximal inhibitory concentration (IC50) of 5.3 nM.

For the compound `CCS(=O)(=O)c1ncc(S(N)(=O)=O)s1` [2-(Ethylsulfonyl)-5-thiazole sulfonamide, 2-Ethylsulfonyl-5-thiazole sulfonamide], in data set [1], half-maximal inhibition (IC50) was put at 6.7 nM. The Cysteine reactivity result in data set [2] is on record as “reactive”.

As to `CN1CCN(S(=O)(=O)c2ncc(S(N)(=O)=O)s2)CC1` [4-methyl-1-(2-(5-sulfamylthiazoyl)sulfonyl)piperazine], the 50% inhibitory concentration (IC50) in data set [1] is 9.3 nM. Also, the Cysteine reactivity result in data set [2] was “reactive”.

In data set [1], `CCCCC#Cc1ncc(S(N)(=O)=O)s1` [2-(1-Hexynyl)-5-thiazole sulfonamide] gave an IC50 of 7.7 nM. This compound also had a Cysteine reactivity in data set [2] of 0.001.

As to `CCSc1ncc(S(N)(=O)=O)s1` [2-(Ethylthio)-5-thiazole sulfonamide, 2-Ethylthio-5-thiazole sulfonamide], the IC50 in data set [1] came out at 6.3 nM. In addition, the Cysteine reactivity in data set [2] was below 0.0000024.

`CC(=O)OCCCC(=O)c1cnc(S(N)(=O)=O)s1` [5-(4-acetoxybutanoyl)-2-thiazole sulfonamide] returned an IC50 in data set [1] of 8.4 nM. For the same compound, in data set [2], the Cysteine reactivity result was “reactive”.

With `NS(=O)(=O)c1nc(-c2ccccc2)cs1` [4-Phenyl-2-thiazole sulfonamide], the IC50 in data set [1] amounted to 20 nM.

In data set [1], `NS(=O)(=O)c1ncc(Sc2ccccc2)s1` [5-(Phenylthio)-2-thiazole sulfonamide] gave an IC50 of 2.7 nM. The compound also showed a Cysteine reactivity in data set [2] of 0.005.

`COc1ccc(-c2csc(S(N)(=O)=O)n2)cc1` [4-(4-Methoxyphenyl)-2-thiazole sulfonamide] displayed an IC50 in data set [1] of 33 nM.

In turn, `NS(=O)(=O)c1cnc(C(=O)C2CC2)s1` [2-(1-Ketocyclopropyl)-5-thiazole sulfonamide] had a half-inhibitory concentration (IC50) in data set [1] of 3.5 nM. For the same compound, in data set [2], the Cysteine reactivity is below 0.000024.

The compound `CCCCC#Cc1cnc(S(N)(=O)=O)s1` [5-(1-Hexynyl)-2-thiazole sulfonamide] gave an IC50 in data set [1] of 5.6 nM. In data set [2], the Cysteine reactivity turned out to be 0.00019.

Take `NS(=O)(=O)c1cnc([S+]([O-])c2ccccc2)s1` (stereo not shown) [2-Phenylsulfinyl-5-thiazole sulfonamide]: half-maximal inhibition in data set [1] (IC50) required 12.7 nM. The Cysteine reactivity entry in data set [2] is “reactive”.

In turn, `COCOCC(=O)c1ncc(S(N)(=O)=O)s1` [2-(2-(methoxymethoxy)ethanoyl)-5-thiazole sulfonamide] had an IC50 in data set [1] of 10.3 nM.

Take `Cc1csc(S(N)(=O)=O)n1` [4-Methyl-2-thiazole sulfonamide]: the IC50 in data set [1] is 120 nM. Besides, the Cysteine reactivity in data set [2] is 0.00005.

`NS(=O)(=O)c1cnc(S(=O)(=O)c2ccccc2)s1` [2-Phenylsulfonyl-5-thiazole sulfonamide] gave an IC50 in data set [1] of 5.5 nM. Moreover, in data set [2], the Cysteine reactivity entry is given as “reactive”.

In data set [1], `Cc1sc(S(N)(=O)=O)nc1-c1ccccc1` [5-Methyl-4-phenyl-2-thiazole sulfonamide] returned a concentration for half-maximal inhibition (IC50) of 84 nM. For the same compound, the Cysteine reactivity result in data set [2] was “N.R”.

For the compound `NS(=O)(=O)c1cnc(Sc2ccccc2)s1` [2-Phenylthio-5-thiazole sulfonamide, 2-Thiophenyl-5-thiazole sulfonamide], in data set [1], inhibition was half-maximal at 5.5 nM (IC50). Further, the Cysteine reactivity entry in data set [2] is on record as “N.R”.

The compound `NS(=O)(=O)c1ncc(-c2ccccc2)s1` [5-Phenyl-2-thiazole sulfonamide] yielded a concentration for half-maximal inhibition (IC50) in data set [1] of 6 nM.

What is called IC50 is the midpoint of a concentration-inhibition curve.

These data come from patent publication US5519040A, “Substituted thiazole sulfonamides as antiglaucoma agents” (Allergan, priority 1994, dated 1996).
